Molecules are shown by their SMILES.

For orientation: Ki means the equilibrium dissociation constant of an inhibitor or competing ligand from its target. The IC50 is the concentration at which inhibition is half-maximal. A high value points to lower potency.

In assay [1] the test system is phosphodiesterase type IV (PDE IV). Kind of assay: Head-twitch test in rats (characteristic of PDE IV inhibitors). The assay is classed as in vivo, male Wistar rats. Conditions: observed 15-75 minutes after injection, MED = lowest dose with statistically significant effect. How it is done: (§1) The improved effectiveness of the new chiral methylphenyloxazolidinone derivatives in comparison with the racemate can be shown based on the head twitch and grooming reactions in rats that are characteristic of phosphodiesterase type IV (PDE IV) inhibitors. The racemate and the appropriate enantiomers were administered intraperitoneally (i.p.) to male Wistar rats and the occurrence of head twitches and grooming for 15-75 minutes after injection was detected by observation.
(§2) MED: Minimum effective dose, i.e., the lowest dose that ensures a statistically significant effect.

Assay [2] addresses 3H-Rolipram bond in brain homogenates. Kind of assay: Displacement of radiolabeled Rolipram in brain homogenates. Format: binding. Conditions: calculated from IC50: Ki = IC50/[1+(L/KD)]. Here is the method:
The action of the enantiomers on the central nervous system was studied in vitro by examining their capacity to displace radiolabeled Rolipram in brain homogenates (Europ. Journ. of Pharmac. Vol. 127, 105-115 (1986)). The IC50 values (the concentration at which 50% inhibition action occurs) were converted to inhibition constant Ki, which is calculated according to the following formula: […]
in which L means the concentration of the radioactive tracer and KD means the dissociation constant of the ^3 H-Rolipram bond, which is determined separately.

Assay [3] deals with phosphodiesterase type IV (PDE IV). Put plainly: Grooming reaction in rats (characteristic of PDE IV inhibitors). Format: in vivo, male Wistar rats. Conditions: observed 15-75 minutes after injection, MED = lowest dose with statistically significant effect. How it is done:
as §1, §2

For the next assay, the system named is TNF-α release. Kind of assay: Inhibition of LPS-stimulated TNF-α release from macrophage cell line RAW 264 (Elisa). As to conditions: Mus musculus, RAW264.7, 30 min preincubation, LPS 10 ng/ml, 18 hours. The assay is classed as cell-based, murine. Here is the method: A murine macrophage cell line (RAW 264) was preincubated for 30 minutes in the presence and in the absence of various concentrations of PDE-IV inhibitors and then stimulated with LPS (10 ng/ml). 18 hours after stimulation, the culture medium was removed, and the TNF-α release was measured with a specific Elisa test. The test can be obtained from various companies, i.a., from the British biotechnology company Genzyme, and it is carried out as the manufacturer describes.

Take `COc1ccc(C2(C)CNC(=O)O2)cc1OC1CCCC1` (racemic) [(R,S) - 1, (R,S)-5-(3-Cyclopentyloxy-4-methoxyphenyl)-5-methyl-2-oxazolidinone]: the “Head-Twitch Test MED i.p.” value in assay [1] was 1.56 mg/kg. In assay [2], the inhibition constant Ki was 0.57 nM. In addition, the “Grooming MED i.p.” value in assay [3] came out at 0.1 mg/kg.
Consider `CCCOc1cc(C2(C)CNC(=O)O2)ccc1OC` (racemic) [(RS) - 2, (R,S)-5-(4-Methoxy-3-propoxyphenyl)-5-methyl-2-oxazolidinone], for which the inhibition constant (Ki) in assay [2] is 0.61 nM. The same molecule came in with an IC50 with TNF-α release of 500 nM.
Consider `CCOc1cc(C2(C)CNC(=O)O2)ccc1OC` (racemic) [Ethyl- Racemate, (R,S)-5-(3-Ethoxy-4-methoxyphenyl)-5-methyl-2-oxazolidinone], for which the inhibition constant Ki in assay [2] was 0.68 nM.
For the molecule `COc1ccc([C@]2(C)CNC(=O)O2)cc1OC1CCCC1` [(R) - (-) - 1, (R)-(-)-5-(3-Cyclopentyloxy-4-methoxyphenyl)-5-methyl-2-oxazolidinone], in assay [1], the “Head-Twitch Test MED i.p.” value worked out at 0.39 mg/kg. Besides, the Ki in assay [2] is 0.34 nM. Moreover, in assay [3], the “Grooming MED i.p.” value is listed as 0.1 mg/kg.
On to `CCCOc1cc([C@]2(C)CNC(=O)O2)ccc1OC` [(R) - (-) - 2, (R)-(-)-5-(4-Methoxy-3-propoxyphenyl)-5-methyl-2-oxazolidinone], for which the inhibition constant (Ki) in assay [2] was 0.24 nM. The molecule further displayed an IC50 with TNF-α release of 250 nM.
Take `COc1ccc([C@@]2(C)CNC(=O)O2)cc1OC1CCCC1` [(S) - (+) - 1, (S)-(+)-5-(3-Cyclopentyloxy-4-methoxyphenyl)-5-methyl-2-oxazolidinone]: the “Head-Twitch Test MED i.p.” value in assay [1] was 6.25 mg/kg. Besides, in assay [2], the Ki is 3 nM. The “Grooming MED i.p.” value in assay [3] is given as 6.25 mg/kg.
Consider `CCCOc1cc([C@@]2(C)CNC(=O)O2)ccc1OC` [(S) - (+) - 2, (S)-(+)-5-(4-Methoxy-3-propoxyphenyl)-5-methyl-2-oxazolidinone], for which, in assay [2], the Ki was 16 nM. Moreover, the IC50 in the assay with TNF-α release worked out at 2500 nM.
For `CCOc1cc([C@]2(C)CNC(=O)O2)ccc1OC` [Ethyl- (R)-(-)-Isomer, (R)-(-)-5-(3-Ethoxy-4-methoxyphenyl)-5-methyl-2-oxazolidinone], the Ki in assay [2] was 0.33 nM.
On to `CCOc1cc([C@@]2(C)CNC(=O)O2)ccc1OC` [Ethyl- (S)-(+)-Isomer, (S)-(+)-5-(3-Ethoxy-4-methoxyphenyl)-5-methyl-2-oxazolidinone], for which, in assay [2], the inhibition constant (Ki) is 20 nM.

The values are drawn from patent US6025376A, “Chiral methylphenyloxazolidinones” (Schering Aktiengesellschaft, priority 1995, dated 2000).
